In US20120122860A1, “SOLID FORMS OF SULFONAMIDES AND AMINO ACIDS” (Plexxikon, Inc., priority 2009, published 2012):

How the values were obtained:
[1] = Polymorph stability of P-1167 forms 1 and 2; assay type: physicochemical; conditions: P-1167 form 1 versus form 2
From the text: Propane-1-sulfonic acid {3-[5-(4-chloro-phenyl)-1H-pyrrolo[2,3-b]pyridine-3-carbonyl]-2,4-difluoro-phenyl}-amide (P-1167) may be prepared according to methods known in the art, for example, using methods described in U.S. patent application Ser. No. 11/473,347 (see also, PCT publication WO2007002433), the disclosure of which is hereby incorporated by reference. Compound P-1167 can exist in polymorphic forms, for example as polymorphic forms 1 or 2, where such polymorphic forms may be isolated as the substantially pure polymorph. The desired polymorphic form may be prepared, for example, by using appropriate crystallization conditions. For example, Form 1 was isolated by recrystallization from acetone/absolute ethanol (e.g. 1:1 to 5:1, preferably 2:1 by volume). […] The substantially pure isolated polymorphic forms were characterized by X-Ray Powder Diffraction (XRPD), differential scanning calorimetry (DSC) and infrared spectroscopy.

[2] = Rat PK study of P-1496 free base, arginine and lysine complex; assay type: in vivo, Sprague-Dawley rats; design: AUC∞/dose: unit not given here; conditions: for AUC∞/dose / Cmax/dose: Table 10B, rats; for biopharmaceutical properties, comparison in words: rat PK, relative to P-1496 free base
Protocol: A PK study was carried out in Sprague-Dawley rats on the arginine or lysine complex of propane-1-sulfonic acid {2,4-difluoro-3-[5-(2-methoxy-pyrimidin-5-yl)-1H-pyrrolo[2,3-b]pyridine-3-carbonyl]-phenyl}-amide P-1496 (Murigenics, Berkeley, Calif.), dosing via […], with sampling of approximately 250 μL of blood via jugular veing in Lithium heparin tubes at 30 minutes, 1, 3, 6, 8, 12, 24, 36 and 48 hours. Blood samples were centrifuged at 4° C. for 10 minutes at RCF of 1,000, plasma was stored at […] and shipped frozen for analytical analysis (Integrated Analytical Solutions, Inc., Berkeley, Calif.).
Solid formulations were taken up in PEG400:water at 200 mg/cc for free base, arginine, and lysine complexes, and also at 400 mg/cc for lysine complex and dosed by oral gavage 10 mL/kg to provide the P-1496 doses indicated in Table 10B.

B-Raf V600E = B-Raf V600E (Homo sapiens, UniProt P15056, V600E); assay: Kinase activity assay, B-Raf V600E; assay type: biochemical; conditions: read-out: activity toward kinase B-Raf V600E, IC50
Fms = Fms (Homo sapiens, UniProt P07333); assay: Kinase activity assay, Fms
Kdr = Kdr (Homo sapiens, UniProt P35968); assay: Kinase activity assay, Kdr
Kit = Kit (Homo sapiens, UniProt P10721); assay: Kinase activity assay, Kit
Src = Src (Homo sapiens, UniProt P12931); assay: Kinase activity assay, Src
PI3Kα = PI3Kα (Homo sapiens, UniProt P42336); assay: Kinase activity assay, PI3Kα
PI3Kδ = PI3Kδ (Homo sapiens, UniProt O00329); assay: Kinase activity assay, PI3Kδ
B-Raf = B-Raf (Homo sapiens, UniProt P15056); assay: Kinase activity assay, B-Raf; assay type: biochemical; conditions: read-out: activity toward kinase B-Raf, IC50
PI3Kγ = PI3Kγ (Homo sapiens, UniProt P48736); assay: Kinase activity assay, PI3Kγ
A-Raf = molecular target: T1, A-Raf (Homo sapiens, UniProt P10398); assay: Kinase activity assay, A-Raf
T1 sequence (P10398 1-606): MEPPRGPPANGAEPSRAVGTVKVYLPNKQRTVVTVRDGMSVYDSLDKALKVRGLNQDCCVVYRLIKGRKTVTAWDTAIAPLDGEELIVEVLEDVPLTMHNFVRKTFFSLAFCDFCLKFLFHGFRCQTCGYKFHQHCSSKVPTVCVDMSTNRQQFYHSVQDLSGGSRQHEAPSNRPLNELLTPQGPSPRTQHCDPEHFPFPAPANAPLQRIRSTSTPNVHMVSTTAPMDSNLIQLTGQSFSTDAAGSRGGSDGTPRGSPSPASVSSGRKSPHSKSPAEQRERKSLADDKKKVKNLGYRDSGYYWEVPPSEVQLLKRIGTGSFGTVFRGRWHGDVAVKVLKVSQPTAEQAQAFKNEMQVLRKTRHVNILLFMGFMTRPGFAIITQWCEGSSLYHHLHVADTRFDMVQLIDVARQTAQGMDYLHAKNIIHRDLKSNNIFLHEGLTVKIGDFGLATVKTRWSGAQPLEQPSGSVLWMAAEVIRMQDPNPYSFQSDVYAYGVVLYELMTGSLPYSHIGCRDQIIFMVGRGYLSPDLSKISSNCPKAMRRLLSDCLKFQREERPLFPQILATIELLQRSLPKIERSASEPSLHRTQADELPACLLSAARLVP

C-Raf = C-Raf (Homo sapiens, UniProt P04049); assay: Kinase activity assay, C-Raf
MAP4K4 = MAP4K4 (Homo sapiens, UniProt O95819); assay: Kinase activity assay, MAP4K4
TrkA = TrkA (Homo sapiens, UniProt P04629); assay: Kinase activity assay, TrkA
[3] = Intrinsic dissolution rate in simulated gastric fluid (SGF) without enzyme; assay type: physicochemical; conditions: pellet, 254 nm
Protocol: (§1) The intrinsic dissolution rate of a similarly prepared substantially amorphous arginine complex of P-1167 was compared to that of the form 2 polymorph in simulated gastric fluid (SGF) without enzyme and in simulated intestinal fluid (SIF). A pellet of test sample was dissolved in the appropriate fluid, and the UV absorbance as a function of time was measured at 254 nm (SGF) or 310 nm (SIF) and plotted. […] As such, significant improvement of dissolution of the arginine complex is shown, which is likely to be improved further by processing the complex to a completely amorphous form.

[4] = Intrinsic dissolution rate in simulated intestinal fluid (SIF); assay type: physicochemical; conditions: pellet, 310 nm, versus form 2 polymorph free base
Protocol: as §1

[5] = dose 100, in PEG400:water by oral gavage 10 mL/kg
[6] = dose 200, in PEG400:water by oral gavage 10 mL/kg

Chain of B-Raf V600E (P15056 whole entry V600E): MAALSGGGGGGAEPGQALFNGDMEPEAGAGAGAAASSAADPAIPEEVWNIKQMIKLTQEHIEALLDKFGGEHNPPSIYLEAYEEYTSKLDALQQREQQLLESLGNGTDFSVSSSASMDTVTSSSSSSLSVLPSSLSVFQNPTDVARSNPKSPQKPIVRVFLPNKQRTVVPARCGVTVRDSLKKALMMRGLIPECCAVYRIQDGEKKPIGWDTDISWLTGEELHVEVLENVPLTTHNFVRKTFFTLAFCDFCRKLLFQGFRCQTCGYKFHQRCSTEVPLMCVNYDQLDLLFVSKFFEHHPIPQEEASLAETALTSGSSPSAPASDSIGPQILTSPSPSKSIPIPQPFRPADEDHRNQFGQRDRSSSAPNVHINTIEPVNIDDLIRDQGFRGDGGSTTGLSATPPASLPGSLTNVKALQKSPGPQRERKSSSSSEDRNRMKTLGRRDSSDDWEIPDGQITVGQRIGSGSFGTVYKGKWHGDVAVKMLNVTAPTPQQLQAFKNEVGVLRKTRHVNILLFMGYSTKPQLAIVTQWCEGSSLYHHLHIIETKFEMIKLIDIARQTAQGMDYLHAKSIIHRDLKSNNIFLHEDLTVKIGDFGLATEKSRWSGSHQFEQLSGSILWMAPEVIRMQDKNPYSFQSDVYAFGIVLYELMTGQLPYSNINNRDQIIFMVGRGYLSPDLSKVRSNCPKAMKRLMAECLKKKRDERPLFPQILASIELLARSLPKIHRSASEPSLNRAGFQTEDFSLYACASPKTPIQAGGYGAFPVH
Chain of PI3Kα (P42336 whole entry): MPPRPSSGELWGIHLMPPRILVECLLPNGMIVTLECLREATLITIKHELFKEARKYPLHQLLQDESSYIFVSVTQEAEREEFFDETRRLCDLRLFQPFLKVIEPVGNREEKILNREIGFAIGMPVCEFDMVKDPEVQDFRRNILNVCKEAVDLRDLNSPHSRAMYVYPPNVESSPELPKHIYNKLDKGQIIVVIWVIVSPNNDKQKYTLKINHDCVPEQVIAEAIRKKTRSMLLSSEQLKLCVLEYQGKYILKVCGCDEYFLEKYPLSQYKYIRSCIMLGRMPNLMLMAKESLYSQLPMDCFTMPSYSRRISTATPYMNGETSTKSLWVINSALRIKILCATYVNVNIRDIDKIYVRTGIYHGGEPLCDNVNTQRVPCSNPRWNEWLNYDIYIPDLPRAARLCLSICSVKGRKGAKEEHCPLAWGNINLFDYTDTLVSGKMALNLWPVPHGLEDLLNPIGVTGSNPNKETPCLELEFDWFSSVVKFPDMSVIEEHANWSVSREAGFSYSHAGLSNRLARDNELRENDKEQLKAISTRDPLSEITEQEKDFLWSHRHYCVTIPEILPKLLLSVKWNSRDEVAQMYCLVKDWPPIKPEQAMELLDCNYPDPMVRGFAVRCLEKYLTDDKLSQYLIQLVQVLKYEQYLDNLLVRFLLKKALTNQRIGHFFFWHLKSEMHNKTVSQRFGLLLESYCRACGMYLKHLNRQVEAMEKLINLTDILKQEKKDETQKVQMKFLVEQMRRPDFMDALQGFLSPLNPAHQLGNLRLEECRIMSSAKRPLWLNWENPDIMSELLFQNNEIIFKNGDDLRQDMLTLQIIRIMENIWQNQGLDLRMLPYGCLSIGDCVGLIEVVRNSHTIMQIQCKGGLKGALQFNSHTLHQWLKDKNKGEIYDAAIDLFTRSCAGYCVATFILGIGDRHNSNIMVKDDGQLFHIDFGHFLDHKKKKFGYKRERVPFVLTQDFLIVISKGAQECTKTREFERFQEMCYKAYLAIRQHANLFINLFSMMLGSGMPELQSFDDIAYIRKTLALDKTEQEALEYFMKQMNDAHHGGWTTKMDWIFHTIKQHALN
Chain of PI3Kα (P27986 whole entry partner): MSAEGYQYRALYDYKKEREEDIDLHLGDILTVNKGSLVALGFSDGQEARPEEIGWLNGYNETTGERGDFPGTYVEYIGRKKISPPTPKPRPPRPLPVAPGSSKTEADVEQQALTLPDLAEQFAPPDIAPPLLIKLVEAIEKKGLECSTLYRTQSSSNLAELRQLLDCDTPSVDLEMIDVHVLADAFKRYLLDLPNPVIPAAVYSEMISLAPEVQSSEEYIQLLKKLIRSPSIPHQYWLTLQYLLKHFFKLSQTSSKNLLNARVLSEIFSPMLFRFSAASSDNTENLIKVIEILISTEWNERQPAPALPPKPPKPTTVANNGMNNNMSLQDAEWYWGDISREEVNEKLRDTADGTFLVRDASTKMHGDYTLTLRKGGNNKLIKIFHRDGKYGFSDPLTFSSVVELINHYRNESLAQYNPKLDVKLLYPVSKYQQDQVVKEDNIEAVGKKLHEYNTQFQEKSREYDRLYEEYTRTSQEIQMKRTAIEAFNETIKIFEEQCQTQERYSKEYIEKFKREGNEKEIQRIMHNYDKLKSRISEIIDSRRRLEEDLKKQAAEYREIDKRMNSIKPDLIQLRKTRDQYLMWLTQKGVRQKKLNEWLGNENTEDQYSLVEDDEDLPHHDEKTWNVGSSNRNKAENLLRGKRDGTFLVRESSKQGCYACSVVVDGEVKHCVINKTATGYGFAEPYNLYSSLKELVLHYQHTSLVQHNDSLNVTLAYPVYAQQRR
Chain of B-Raf (P15056 whole entry): as the sequence (P15056 whole entry V600E) above, with E600V counted along it
Chain of PI3Kγ (P48736 whole entry): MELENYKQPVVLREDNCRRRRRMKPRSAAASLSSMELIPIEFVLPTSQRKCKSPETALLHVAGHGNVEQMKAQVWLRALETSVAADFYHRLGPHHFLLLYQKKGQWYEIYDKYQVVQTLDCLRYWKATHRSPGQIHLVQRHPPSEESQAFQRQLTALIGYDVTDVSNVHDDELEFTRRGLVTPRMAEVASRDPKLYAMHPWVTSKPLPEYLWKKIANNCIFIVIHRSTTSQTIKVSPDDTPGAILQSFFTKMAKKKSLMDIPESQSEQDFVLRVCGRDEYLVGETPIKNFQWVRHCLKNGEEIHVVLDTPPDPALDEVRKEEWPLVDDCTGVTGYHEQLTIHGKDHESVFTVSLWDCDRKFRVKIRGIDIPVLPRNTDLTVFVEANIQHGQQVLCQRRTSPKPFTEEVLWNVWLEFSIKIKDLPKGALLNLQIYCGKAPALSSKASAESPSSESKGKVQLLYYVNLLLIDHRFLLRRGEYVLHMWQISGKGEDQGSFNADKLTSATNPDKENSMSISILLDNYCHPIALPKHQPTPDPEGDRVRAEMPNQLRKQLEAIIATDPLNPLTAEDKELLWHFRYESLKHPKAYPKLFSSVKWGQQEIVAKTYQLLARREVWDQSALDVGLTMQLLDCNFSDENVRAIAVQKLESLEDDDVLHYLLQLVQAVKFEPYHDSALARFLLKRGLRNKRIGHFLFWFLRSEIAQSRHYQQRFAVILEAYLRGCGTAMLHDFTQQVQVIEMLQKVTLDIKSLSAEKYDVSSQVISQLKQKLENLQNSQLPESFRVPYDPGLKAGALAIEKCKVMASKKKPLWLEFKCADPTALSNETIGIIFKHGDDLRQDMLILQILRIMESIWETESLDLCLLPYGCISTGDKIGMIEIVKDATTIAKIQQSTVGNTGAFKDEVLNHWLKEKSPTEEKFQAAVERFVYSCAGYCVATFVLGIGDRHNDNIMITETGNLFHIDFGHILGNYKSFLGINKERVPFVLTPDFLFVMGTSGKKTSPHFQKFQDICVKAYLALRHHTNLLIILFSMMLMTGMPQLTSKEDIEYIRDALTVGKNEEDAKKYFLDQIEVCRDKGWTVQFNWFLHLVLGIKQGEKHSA
Chain of Kdr (P35968 20-1356): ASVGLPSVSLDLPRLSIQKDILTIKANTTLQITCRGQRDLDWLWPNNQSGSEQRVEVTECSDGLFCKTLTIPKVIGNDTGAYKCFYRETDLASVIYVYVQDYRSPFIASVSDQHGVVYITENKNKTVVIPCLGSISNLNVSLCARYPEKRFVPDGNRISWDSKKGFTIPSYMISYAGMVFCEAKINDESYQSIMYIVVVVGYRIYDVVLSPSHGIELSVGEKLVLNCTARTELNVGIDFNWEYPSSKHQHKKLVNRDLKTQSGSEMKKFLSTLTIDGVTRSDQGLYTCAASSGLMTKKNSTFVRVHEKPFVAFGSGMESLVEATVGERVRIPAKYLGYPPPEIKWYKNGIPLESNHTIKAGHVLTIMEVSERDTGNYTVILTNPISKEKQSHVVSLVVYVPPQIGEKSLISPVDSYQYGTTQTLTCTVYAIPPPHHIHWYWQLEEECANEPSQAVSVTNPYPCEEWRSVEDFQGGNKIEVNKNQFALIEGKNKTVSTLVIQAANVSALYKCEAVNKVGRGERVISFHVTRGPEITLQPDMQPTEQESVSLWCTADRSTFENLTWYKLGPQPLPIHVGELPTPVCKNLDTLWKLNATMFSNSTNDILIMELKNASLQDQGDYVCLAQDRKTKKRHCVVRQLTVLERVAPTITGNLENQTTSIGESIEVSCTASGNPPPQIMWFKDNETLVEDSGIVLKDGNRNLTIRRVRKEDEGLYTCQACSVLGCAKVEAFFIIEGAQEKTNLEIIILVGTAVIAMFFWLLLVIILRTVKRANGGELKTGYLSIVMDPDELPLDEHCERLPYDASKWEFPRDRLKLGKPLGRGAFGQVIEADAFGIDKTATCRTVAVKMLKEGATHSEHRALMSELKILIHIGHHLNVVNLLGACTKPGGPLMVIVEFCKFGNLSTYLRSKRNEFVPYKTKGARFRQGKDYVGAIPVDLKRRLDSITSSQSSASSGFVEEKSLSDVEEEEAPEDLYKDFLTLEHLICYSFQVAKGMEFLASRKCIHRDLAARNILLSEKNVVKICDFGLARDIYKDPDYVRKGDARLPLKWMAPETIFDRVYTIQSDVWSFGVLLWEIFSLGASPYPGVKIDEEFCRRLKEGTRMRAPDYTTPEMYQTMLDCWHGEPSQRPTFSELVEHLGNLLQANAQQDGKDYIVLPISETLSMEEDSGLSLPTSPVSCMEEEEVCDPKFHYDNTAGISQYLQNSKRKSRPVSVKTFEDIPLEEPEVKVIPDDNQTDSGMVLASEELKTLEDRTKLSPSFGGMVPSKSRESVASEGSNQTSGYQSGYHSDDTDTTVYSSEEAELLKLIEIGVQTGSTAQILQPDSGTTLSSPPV

| AUC∞/dose [2, 5] | Cmax/dose [2, 5] | IC50 (B-Raf V600E) [µM] | IC50 (Kdr) [µM] | IC50 (PI3Kα) [µM] | IC50 (B-Raf) [µM] | IC50 (PI3Kγ) [µM] | Compound | also measured |
| --- | --- | --- | --- | --- | --- | --- | --- | --- |
|  |  |  |  |  |  |  | CCCS(=O)(=O)Nc1ccc(F)c(C(=O)c2c[nH]c3ncc(-c4ccc(Cl)cc4)cc23)c1F [P-1167 Form 2, Propane-1-sulfonic acid {3-[5-(4-chloro-phenyl)-1H-pyrrolo[2,3-b]pyridine-3-carbonyl]-2,4-difluoro-phenyl}-amide] | relative stability of polymorphic forms [1]: more stable polymorph |
| 3,620 | 159 (ng/mL)/(mg/kg) |  |  |  |  |  | CCCS(=O)(=O)Nc1ccc(F)c(C(=O)c2c[nH]c3ncc(-c4cnc(OC)nc4)cc23)c1F [P-1496 arginine complex, propane-1-sulfonic acid {2,4-difluoro-3-[5-(2-methoxy-pyrimidin-5-yl)-1H-pyrrolo[2,3-b]pyridine-3-carbonyl]-phenyl}-amide] | biopharmaceutical properties, comparison in words [2]: improved biopharmaceutical properties |
| 1,970 | 106 (ng/mL)/(mg/kg) |  |  |  |  |  | CCCS(=O)(=O)Nc1ccc(F)c(C(=O)c2c[nH]c3ncc(-c4cnc(OC)nc4)cc23)c1F [P-1496 free base, Propane-1-sulfonic acid {2,4-difluoro-3-[5-(2-methoxy-pyrimidin-5-yl)-1H-pyrrolo[2,3-b]pyridine-3-carbonyl]-phenyl}-amide] |  |
| 3,210 | 283 (ng/mL)/(mg/kg) |  |  |  |  |  | CCCS(=O)(=O)Nc1ccc(F)c(C(=O)c2c[nH]c3ncc(-c4cnc(OC)nc4)cc23)c1F [P-1496 lysine complex, propane-1-sulfonic acid {2,4-difluoro-3-[5-(2-methoxy-pyrimidin-5-yl)-1H-pyrrolo[2,3-b]pyridine-3-carbonyl]-phenyl}-amide] | AUC∞/dose [2, 6]: 2,750; Cmax/dose [2, 6]: 155 (ng/mL)/(mg/kg); biopharmaceutical properties, comparison in words [2]: improved biopharmaceutical properties |
|  |  | ≤ 10 | ≤ 10 | ≤ 10 |  |  | CCCS(=O)(=O)Nc1ccc(F)c(C(=O)c2c[nH]c3ncc(-c4cccc(S(=O)(=O)NC)c4)cc23)c1F [P-2170, 3-{3-[2,6-Difluoro-3-(propane-1-sulfonylamino)-benzoyl]-1H-pyrrolo[2,3-b]pyridin-5-yl}-N-methyl-benzenesulfonamide] | IC50 (Fms): ≤ 10 µM; IC50 (Kit): ≤ 10 µM; IC50 (Src): ≤ 10 µM; IC50 (PI3Kδ): ≤ 10 µM |
|  |  | ≤ 10 | ≤ 10 | ≤ 10 | ≤ 10 | ≤ 10 | CCCS(=O)(=O)Nc1ccc(F)c(C(=O)c2c[nH]c3ncc(-c4cncc(S(C)(=O)=O)c4)cc23)c1F [P-2188] | IC50 (PI3Kδ): ≤ 10 µM |
|  |  | ≤ 10 | ≤ 10 | ≤ 10 | ≤ 10 | ≤ 10 | CCCS(=O)(=O)Nc1ccc(F)c(C(=O)c2c[nH]c3ncc(-c4ccc(C(N)=O)nc4)cc23)c1F [P-2220, 5-{3-[2,6-Difluoro-3-(propane-1-sulfonylamino)-benzoyl]-1H-pyrrolo[2,3-b]pyridin-5-yl}-pyridine-2-carboxylic acid amide] | IC50 (Kit): ≤ 10 µM; IC50 (Src): ≤ 10 µM; IC50 (A-Raf): ≤ 10 µM; IC50 (C-Raf): ≤ 10 µM; IC50 (MAP4K4): ≤ 10 µM |
|  |  | ≤ 10 |  | ≤ 10 | ≤ 10 | ≤ 10 | CCCS(=O)(=O)Nc1cccc(C(=O)c2c[nH]c3ncc(-c4cnc(OC)nc4)cc23)c1F [P-2407, Propane-1-sulfonic acid {2-fluoro-3-[5-(2-methoxy-pyrimidin-5-yl)-1H-pyrrolo[2,3-b]pyridine-3-carbonyl]-phenyl}-amide] | IC50 (TrkA): ≤ 10 µM; IC50 (A-Raf): ≤ 10 µM; IC50 (C-Raf): ≤ 10 µM; IC50 (MAP4K4): ≤ 10 µM |
|  |  |  |  |  |  |  | CCCS(=O)(=O)Nc1ccc(F)c(C(=O)c2c[nH]c3ncc(-c4ccc(Cl)cc4)cc23)c1F [arginine complex of P-1167, propane-1-sulfonic acid {3-[5-(4-chloro-phenyl)-1H-pyrrolo[2,3-b]pyridine-3-carbonyl]-2,4-difluoro-phenyl}-amide] | time of maximum absorbance in SGF [3]: approximately 200 minutes; maximum UV absorbance in SGF (dissolution) ([3]; versus form 2 polymorph free base): substantially greater than the free base; UV absorbance in SIF (dissolution) [4]: substantially higher absorbance in SIF than the free base |
